Assay results from patent US10562891B2, “Quinazolinones as PARP14 inhibitors” (Ribon Therapeutics Inc., priority 2017, dated 2020).
Counter-ions that a name gives are not always drawn.

Biological target: catalytic domain of human PARP14 (Homo sapiens (Human), UniProt Q460N5)
Test: Enzymatic assay for inhibition of PARP14 (DELFIA, auto-modification with biotin-NAD)
Format: biochemical
Details: auto-modification of PARP14 by biotin-NAD, 50 nM PARP14, 3 μM biotin-NAD
How it was run: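 His-TEV-tagged PARP14 catalytic domain (50 nM) preincubated with compound 30 min at 25 °C, then auto-modified with 3 μM biotin-NAD for 3 h at 25 °C in HEPES pH 8 buffer with DTT. IC50 from 4-parameter fit, rucaparib and DMSO as controls.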

Chain of catalytic domain of human PARP14 (Q460N5 1611-1801): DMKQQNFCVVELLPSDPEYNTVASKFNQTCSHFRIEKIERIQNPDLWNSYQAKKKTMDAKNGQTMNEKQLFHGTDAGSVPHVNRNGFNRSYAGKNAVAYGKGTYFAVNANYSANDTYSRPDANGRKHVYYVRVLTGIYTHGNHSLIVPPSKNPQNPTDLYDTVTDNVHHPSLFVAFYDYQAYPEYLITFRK

Row | Compound | IC50 [nM]
1 | CN(c1ccc2c(=O)[nH]c(CSC3CCOCC3)nc2c1)C1CCCCC1 [Example 125, 7-(Cyclohexyl(methyl)amino)-2-(((tetrahydro-2H-pyran-4-yl)thio)methyl)quinazolin-4(3H)-one] | 1000 to 10000
2 | O=c1[nH]c(CSC2CCOCC2)nc2cc(NC3CCCN(Cc4ccccc4)C3)ccc12 (centres unmarked) [Example 126, 7-[(1-Benzyl-3-piperidyl)amino]-2-(tetrahydropyran-4-ylsulfanylmethyl)-3H-quinazolin-4-one] | 1000 to 10000
3 | O=c1[nH]c(CSC2CCOCC2)nc2cc(NC3CCCNC3)ccc12 (centres unmarked) [Example 127, 7-(3-Piperidylamino)-2-(tetrahydropyran-4-ylsulfanylmethyl)-3H-quinazolin-4-one] | > 10000
4 | O=c1[nH]c(CSC2CCOCC2)nc2cc(NC3CCN(Cc4ccccc4)CC3)ccc12 [Example 128, 7-((1-Benzylpiperidin-4-yl)amino)-2-(((tetrahydro-2H-pyran-4-yl)thio)methyl) quinazolin-4(3H)-one] | 1000 to 10000
5 | O=c1[nH]c(CSC2CCOCC2)nc2cc(NC3CCNCC3)ccc12 [Example 129, 7-(Piperidin-4-ylamino)-2-(((tetrahydro-2H-pyran-4-yl)thio)methyl) quinazolin-4(3H)-one] | 1000 to 10000
6 | O=c1[nH]c(CSC2CCOCC2)nc2cc(NC3CCNC3)ccc12 (centres unmarked) [Example 130, 7-(Pyrrolidin-3-ylamino)-2-(((tetrahydro-2H-pyran-4-yl)thio)methyl) quinazolin-4(3H)-one] | 1000 to 10000
7 | CC(=O)N1CCC(Nc2ccc3c(=O)[nH]c(CSC4CCOCC4)nc3c2)CC1 [Example 131, 7-((1-Acetylpiperidin-4-yl)amino)-2-(((tetrahydro-2H-pyran-4-yl)thio)methyl) quinazolin-4(3H)-one] | 1000 to 10000
8 | CC(=O)N1CCCC(Nc2ccc3c(=O)[nH]c(CSC4CCOCC4)nc3c2)C1 (centres unmarked) [Example 132, 7-((1-Acetylpiperidin-3-yl)amino)-2-(((tetrahydro-2H-pyran-4-yl)thio)methyl)quinazolin-4(3H)-one] | > 10000
9 | CN1CCCC(Nc2ccc3c(=O)[nH]c(CSC4CCOCC4)nc3c2)C1 (centres unmarked) [Example 133, 7-((1-Methylpiperidin-3-yl)amino)-2-(((tetrahydro-2H-pyran-4-yl)thio)methyl)quinazolin-4(3H)-one] | > 10000
10 | CC(=O)N1CCC(Nc2ccc3c(=O)[nH]c(CSC4CCOCC4)nc3c2)C1 (centres unmarked) [Example 134, 7-((1-Acetylpyrrolidin-3-yl)amino)-2-(((tetrahydro-2H-pyran-4-yl)thio)methyl)quinazolin-4(3H)-one] | 1000 to 10000
11 | Cc1c(Oc2ccccc2)ccc2c(=O)[nH]c(CSC3CCOCC3)nc12 [Example 135, 8-Methyl-7-phenoxy-2-(((tetrahydro-2H-pyran-4-yl)thio)methyl)quinazolin-4(3H)-one] | > 10000
12 | O=c1[nH]c(CS[C@H]2CC[C@H](CO)CC2)nc2cc(NC3CCCCC3)ccc12 [Example 136, 7-(Cyclohexylamino)-2-(((trans-4-(hydroxymethyl)cyclohexyl)thio)methyl) quinazolin-4(3H)-one] | < 1000
13 | O=c1[nH]c(CS[C@H]2CC[C@@H](CO)CC2)nc2cc(NC3CCCCC3)ccc12 [Example 137, 7-(Cyclohexylamino)-2-(((cis-4-(hydroxymethyl)cyclohexyl)thio)methyl) quinazolin-4(3H)-one] | < 1000
14 | Cc1cccc2c(=O)[nH]c(CSC3CCN(Cc4nccn4C)CC3)nc12 [Example 138, 8-Methyl-2-(((1-((1-methyl-1H-imidazol-2-yl)methyl)piperidin-4-yl)thio)methyl)quinazolin-4(3H)-one bistrifluoroacetate] | < 1000
15 | CC(=O)Nc1ccc(CN2CCC(SCc3nc4c(C)cccc4c(=O)[nH]3)CC2)cc1 [Example 139, N-(4-((4-(((8-Methyl-4-oxo-3,4-dihydroquinazolin-2-yl)methyl)thio)piperidin-1-yl)methyl)phenyl)acetamide trifluoroacetate] | < 1000
16 | Cc1cccc2c(=O)[nH]c(CSC3CCN(Cc4ccc(N(C)C)cc4)CC3)nc12 [Example 140, 2-(((1-(4-(Dimethylamino)benzyl)piperidin-4-yl)thio)methyl)-8-methylquinazolin-4(3H)-one trifluoroacetate] | < 1000
17 | Cc1cccc2c(=O)[nH]c(CSC3CCN(Cc4ccc(C#N)cc4)CC3)nc12 [Example 141, 4-((4-(((8-Methyl-4-oxo-3,4-dihydroquinazolin-2-yl)methyl)thio)piperidin-1-yl)methyl)benzonitrile trifluoroacetate] | 1000 to 10000
18 | Cc1cccc2c(=O)[nH]c(CSC3CCN(Cc4cc[nH]n4)CC3)nc12 [Example 142, 2-(((1-((1H-Pyrazol-3-yl)methyl)piperidin-4-yl)thio)methyl)-8-methylquinazolin-4(3H)-one trifluoroacetate] | < 1000

Row | Compound | IC50 [nM]
19 | Cc1cccc2c(=O)[nH]c(CSC3CCN(Cc4nn(C)c5ccccc45)CC3)nc12 [Example 143, 8-Methyl-2-(((1-((1-methyl-1H-indazol-3-yl)methyl)piperidin-4-yl)thio)methyl)quinazolin-4(3H)-one trifluoroacetate] | 1000 to 10000
20 | Cc1nn(C)cc1CN1CCC(SCc2nc3c(C)cccc3c(=O)[nH]2)CC1 [Example 144, 2-(((1-((1,3-Dimethyl-1H-pyrazol-4-yl)methyl)piperidin-4-yl)thio)methyl)-8-methylquinazolin-4(3H)-one trifluoroacetate] | 1000 to 10000
21 | Cc1cccc(CN2CCC(SCc3nc4c(C)cccc4c(=O)[nH]3)CC2)n1 [Example 145, 8-Methyl-2-(((1-((6-methylpyridin-2-yl)methyl)piperidin-4-yl)thio)methyl)quinazolin-4(3H)-one bistrifluoroacetate] | < 1000
22 | Cc1cccnc1CN1CCC(SCc2nc3c(C)cccc3c(=O)[nH]2)CC1 [Example 146, 8-Methyl-2-(((1-((3-methylpyridin-2-yl)methyl)piperidin-4-yl)thio)methyl)quinazolin-4(3H)-one bistrifluoroacetate] | < 1000
23 | Cc1cccc2c(=O)[nH]c(CSC3CCN(CCc4ccccc4)CC3)nc12 [Example 147, 8-Methyl-2-(((1-phenethylpiperidin-4-yl)thio)methyl)quinazolin-4(3H)-one trifluoroacetate] | < 1000
24 | Cc1cccc2c(=O)[nH]c(CSC3CCN(Cc4ccc5cnn(C)c5c4)CC3)nc12 [Example 148, 8-Methyl-2-(((1-((1-methyl-1H-indazol-6-yl)methyl)piperidin-4-yl)thio)methyl)quinazolin-4(3H)-one trifluoroacetate] | < 1000
25 | Cc1n[nH]cc1CN1CCC(SCc2nc3c(C)cccc3c(=O)[nH]2)CC1 [Example 149, 8-Methyl-2-(((1-((3-methyl-1H-pyrazol-4-yl)methyl)piperidin-4-yl)thio)methyl)quinazolin-4(3H)-one trifluoroacetate] | 1000 to 10000
26 | CC(=O)Nc1cccc(CN2CCC(SCc3nc4c(C)cccc4c(=O)[nH]3)CC2)c1 [Example 150, N-(3-((4-(((8-Methyl-4-oxo-3,4-dihydroquinazolin-2-yl)methyl)thio)piperidin-1-yl)methyl)phenyl)acetamide trifluoroacetate] | 1000 to 10000
27 | Cc1cccc2c(=O)[nH]c(CSC3CCN(Cc4c[nH]c5ccncc45)CC3)nc12 [Example 151, 2-(((1-((1H-Pyrrolo[3,2-c]pyridin-3-yl)methyl)piperidin-4-yl)thio)methyl)-8-methylquinazolin-4(3H)-one bistrifluoroacetate] | < 1000
28 | Cc1cccc2c(=O)[nH]c(CSC3CCN(Cc4cnc5ccccn45)CC3)nc12 [Example 152, 2-(((1-(Imidazo[1,2-a]pyridin-3-ylmethyl)piperidin-4-yl)thio)methyl)-8-methylquinazolin-4(3H)-one trifluoroacetate] | < 1000
29 | Cc1cccc2c(=O)[nH]c(CSC3CCN(Cc4cncn4Cc4ccccc4)CC3)nc12 [Example 153, 2-(((1-((1-Benzyl-1H-imidazol-5-yl)methyl)piperidin-4-yl)thio)methyl)-8-methylquinazolin-4(3H)-one trifluoroacetate] | < 1000
30 | Cc1cccc2c(=O)[nH]c(CSC3CCN(Cc4cnn(Cc5ccccc5)c4)CC3)nc12 [Example 154, 2-(((1-((1-Benzyl-1H-pyrazol-4-yl)methyl)piperidin-4-yl)thio)methyl)-8-methylquinazolin-4(3H)-one trifluoroacetate] | < 1000
31 | Cc1cccc2c(=O)[nH]c(CSC3CCN(Cc4ccccc4OCC#N)CC3)nc12 [Example 155, 2-(2-((4-(((8-Methyl-4-oxo-3,4-dihydroquinazolin-2-yl)methyl)thio)piperidin-1-yl)methyl)phenoxy)acetonitrile trifluoroacetate] | < 1000
32 | Cc1cccc2c(=O)[nH]c(CSC3CCN(Cc4ccc5c(c4)NC(=O)C5)CC3)nc12 [Example 156, 8-Methyl-2-(((1-((2-oxoindolin-6-yl)methyl)piperidin-4-yl)thio)methyl)quinazolin-4(3H)-one trifluoroacetate] | 1000 to 10000
33 | COc1ccc(CN2CCC(SCc3nc4c(C)cccc4c(=O)[nH]3)CC2)nc1 [Example 157, 2-(((1-((5-Methoxypyridin-2-yl)methyl)piperidin-4-yl)thio)methyl)-8-methylquinazolin-4(3H)-one bistrifluoroacetate] | < 1000
34 | Cc1cccc2c(=O)[nH]c(CSC3CCN(Cc4ccc5c(c4)OCCN5C)CC3)nc12 [Example 158, 8-Methyl-2-(((1-((4-methyl-3,4-dihydro-2H-benzo[b][1,4]oxazin-7-yl)methyl)piperidin-4-yl)thio)methyl)quinazolin-4(3H)-one trifluoroacetate] | 1000 to 10000
35 | Cc1cccc2c(=O)[nH]c(CSC3CCN(C[C@H](O)CO)CC3)nc12 [Example 159, (S)-2-(((1-(2,3-Dihydroxypropyl)piperidin-4-yl)thio)methyl)-8-methyl quinazolin-4(3H)-one Trifluoroacetate] | 1000 to 10000
